Results taken from patent publication US12129493B2, “Host cells and methods useful for producing unnatural terpenoids using a novel artificial metalloenzyme” (The Regents of the University of California, priority 2020, dated 2024).
Read-outs that look alike come from different tables or passages of the source.

Columns and labels:
[1] = test system: E. coli cells expressing the artificial biosynthetic pathway (pJBEI6410+pJHA170); test: Cell viability test with CFU (colony forming units) assay; type: cell-based; conditions: high concentration, 4 h exposure
Method: 9. Cell viability test with CFU (colony forming units) assay. E. coli cells co-transformed with pJBEI6410 and pJHA170 were grown as described in 7, except for the following steps. […] A portion of cell culture (1.4 mL) was transferred into Falcon 14 mL round-bottom tube. […] For the control group, only sterile ddH2O (1%, v/v) was added. The cultures were further incubated at 30° C., 200 rpm for 4 h. Then the cultures were diluted 10^5 times. Aliquots of diluted cell suspension (50 μL) were plated onto LB agar plates. The plates were incubated at 30° C. for 24 h. The colonies grown on the plates were manually counted and the percentage of viable cells in each group was calculated by normalizing the number of colonies grown in the control group as 100%.

apo-ascorbate peroxidase [2] = conditions: from literature (ref. 9); cited from earlier work
apo-myoglobin [3] = conditions: from literature (ref. 9); cited from earlier work
[4] = target: T1, Sulfolobus CYP119 (cytochrome P450 119, parent sequence SEQ ID NO: 1), apo form, CYP119-141 mutant (C317G, T213G, V254L, L155W) (Sulfolobus acidocaldarius, UniProt Q55080, C317G/L155W/T213G/V254L); test: Binding affinity of apo-CYP119 towards Ir(Me)MPIX/hemin (intrinsic fluorescence quenching, Benesi-Hildebrand); design: species or system Sulfolobus solfataricus; conditions: excitation 294 nm, 10 mM TRIS buffer pH 8.0, Benesi-Hildebrand analysis
T1 construct: made in house
Method: Intrinsic fluorescence quenching;^8 Modified from a reported procedure, aliquots (10 μL) of metalloporphyrin stock solutions (in DMSO) were added to a solution containing 0.15 mg/L apo-CYP119 (CYP119-141 mutant, 800 μL, 10 mM TRIS buffer, pH 8.0). This addition caused the concentration of the protein to decrease from its initial value to a final concentration of 0.148 mg/L in the process. After each addition, the emission spectrum of CYP119 was recorded upon excitation at 294 nm. In quenching experiments, the concentration of the chromophore (CYP119 or porphyrin) was kept sufficiently low (<0.15) to ensure uniform light absorption throughout the sample and reduced inner filter effects. The fluorescence emission intensity was calculated as the integral of the emission spectrum in the recorded wavelength range (305-450 nm).

apo-myoglobin [5] = conditions: literature; cited from earlier work
apo-ascorbate peroxidase [6] = conditions: literature; cited from earlier work

T1 sequence (Q55080 whole entry L155W/T213G/V254L/C317G): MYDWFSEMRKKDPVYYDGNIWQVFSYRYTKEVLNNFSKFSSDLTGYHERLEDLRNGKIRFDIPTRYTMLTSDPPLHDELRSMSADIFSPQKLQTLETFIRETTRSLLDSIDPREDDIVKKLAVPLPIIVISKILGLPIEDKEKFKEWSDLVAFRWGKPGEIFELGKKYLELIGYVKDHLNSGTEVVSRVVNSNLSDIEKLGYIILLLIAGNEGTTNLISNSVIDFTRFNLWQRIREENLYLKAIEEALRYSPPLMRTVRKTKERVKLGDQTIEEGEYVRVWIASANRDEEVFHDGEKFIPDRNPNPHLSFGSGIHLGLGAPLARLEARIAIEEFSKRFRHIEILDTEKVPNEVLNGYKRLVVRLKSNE

**Q.** Which “toxicity to E. coli cells (viable cells)” value [1] does the source give for `CCOC(=O)C=[N+]=[N-]` [EDA, ethyl diazoacetate] here?
**A.** toxic

**Q.** What does the source list for `C=CC1=C(C)c2cc3[nH]c(cc4nc(cc5[nH]c(cc1n2)c(C)c5CCC(=O)O)C(CCC(=O)O)=C4C)c(C)c3C=C.[Fe+3]` [Fe(Cl)PPIX, reference compound]?
**A.** Kd (apo-ascorbate peroxidase [2]): 190 nM; Kd (apo-myoglobin [3]): 600 nM; Kb [4]: 6.7(0.7) × 10^5 M^−1; Kd [4]: 1500 nM

**Q.** Which Kd (apo-myoglobin [5]) does the source give for `C=CC1=C(C)c2cc3[n-]c(cc4[n-]c(cc5nc(cc1n2)C(C)=C5C=C)c(C)c4CCC(=O)O)c(CCC(=O)O)c3C.[Cl-].[Fe+3]` [Fe(Cl)PPIX] here?
**A.** 600 nM

**Q.** And the Kd (apo-ascorbate peroxidase [6])?
**A.** 190 nM
